According to patent US20050124665A1, “Pharmaceutical compositions” (priority 2001, published 2005):

Assays:
Sendai virus = assay: Effect on the replication of Sendai virus (virus yield by HAU titration in 37RC cells); format: cell-based; settings: Respirovirus muris, in Primates; at 24 hours after infection; monkey kidney 37RC cells infected with SV (5 HAU/10^5 cells); virus yield in supernatant by HAU titration; read-out: ID50 (the 50% inhibitory dose/concentration)
Procedure: Methods: Monkey kidney 37RC cells were grown at 37° C. under the conditions described in Example 6 for T cells. The parainfluenza Sendai virus (SV) was grown in the allantoic cavity of 10-day-old embroynated eggs. Viral titre was expressed in haemagglutinating units (HAU) per ml; haemagglutin titration was done according to standard procedures using human 0 Rh+ erythrocytes, as described in C. Amici et al. (J. Virol. 68: 6890-6899, 1994). Confluent monolayers of 37RC cells were infected with SV virus (5 HAU/10^5 cells) for 1 h at 37° C., and then treated with different concentrations of test compounds. Virus yield at 24 hours after infection was determined in the supernatant of infected cells by HAU titration. The results from representative experiments are shown for CTC-73, 74, 83, 84 and 85 (as identified above) in FIGS. 1a, 2a, 3a, 4a and 5a, respectively.

HSF1 = molecular target: T1, HSF1 (Homo sapiens, UniProt Q00613); settings: cited from earlier work
T1 sequence (Q00613 1-529): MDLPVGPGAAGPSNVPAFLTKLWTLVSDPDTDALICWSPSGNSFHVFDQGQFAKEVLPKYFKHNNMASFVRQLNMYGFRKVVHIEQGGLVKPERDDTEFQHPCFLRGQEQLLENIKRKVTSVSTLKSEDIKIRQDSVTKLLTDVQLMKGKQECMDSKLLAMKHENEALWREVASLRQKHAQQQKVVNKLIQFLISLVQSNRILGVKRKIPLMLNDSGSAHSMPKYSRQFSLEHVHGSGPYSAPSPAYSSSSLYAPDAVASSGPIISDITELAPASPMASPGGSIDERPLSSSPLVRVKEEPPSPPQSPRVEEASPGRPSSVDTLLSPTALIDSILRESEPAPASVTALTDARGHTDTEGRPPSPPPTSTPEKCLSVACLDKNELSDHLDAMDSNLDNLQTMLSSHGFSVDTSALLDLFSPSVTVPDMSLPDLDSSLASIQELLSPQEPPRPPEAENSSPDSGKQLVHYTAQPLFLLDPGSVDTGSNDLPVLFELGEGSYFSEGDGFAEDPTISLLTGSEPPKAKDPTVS

NF-κB = settings: at the same concentration (125-500 μM); cited from earlier work

| Structure (SMILES) | IC50 (Sendai virus) [µM] | Concentration able to activate HSF1 and trigger synthesis of HSP70 (HSF1) [µM] | Block of NF-κB activation (NF-κB) |
| --- | --- | --- | --- |
| CCCCCCCCC/C=C\CC1CC=CC1=O (stereo not drawn) [CTC-84, ((Z)-5-Dodec-2-enyl)-cyclopent-2-enone] | 7 | – | – |
| CCCCCCCCC/C=C/CC1CC=CC1=O (stereo not drawn) [CTC-85, ((E)-5-Dodec-2-enyl)-cyclopent-2-enone] | 10 | – | – |
| O=C1C=CCC1 [cyclopent-2-en-1-one] | – | 125 to 500 | able to block NF-κB activation |

Continued by falling IC50 (Sendai virus), values first:

| IC50 (Sendai virus) [µM] | Structure (SMILES) | Concentration able to activate HSF1 and trigger synthesis of HSP70 (HSF1) [µM] | Block of NF-κB activation (NF-κB) |
| --- | --- | --- | --- |
| 10 | CCCCCC/C=C\CC1CC=CC1=O (stereo not drawn) [CTC-83, ((Z)-5-Non-2-enyl)-cyclopent-2-enone] | – | – |
| 1 | CCCC/C=C\CC1CC=CC1=O (stereo not drawn) [CTC-74, ((Z)-5-Hept-2-enyl)-cyclopent-2-enone] | – | – |
